In patent US4284653A, “Process for handling and processing fish meat” (Nippon Suisan Kabushiki Kaisha, priority 1979, dated 1981):
Starred links: 1 amine or outer side, 2 acyl side, 3 side chain; linkers in the order of their positions; H or OH if unused. Residues, ends and D or L forms follow the SMILES beside them. CO = O=C([*:1])[*:2]

Experiments:
[1] = tested on: protease of hake flesh with jellied condition; assay: Inhibition of protease in aqueous extract of hake meat with jellied condition (urea-denatured hemoglobin substrate, Folin method); type: biochemical
Experimental: North Pacific hake (Merluccius products) on which the sporosa were parasitic was minced and homogenized with two volumes of water. After standing for 2 hours, the homogenate was centrifuged (15,000 xg, 20 minutes) under cooling condition, and the supernatant was dialyzed against tap water for 24 hours. The residual liquid remaining after the dialysis was heated at 50° C. for 20 minutes. The resulting precipitate was removed under cooling by centrifuge (15,000 xg, 30 minutes). The supernatant liquid was designated an aqueous extract of fish meat with jellied condition.
Separately, 3 ml of Mclvaine buffer solution (pH=3) was added to 1 ml of urea-denatured bovine hemoglobin (at a concentration of 4%) to prepare a substrate solution. 1 ml of a 1:1 mixture of the above obtained extract and a solution of various TPI was added to the above prepared substrate solution. The resulting mixture was incubated at 40° C. for 5 minutes. Thereafter, 5 ml of a 5% trichloroacetic acid was added to the mixture to allow the reaction to stop. The reaction mixture was left to stand for 30 minutes at room temperature. Then, the mixture was filtered through a filter paper (Toyo filter paper No. 5C). 1 ml of the filtrate was colorometrically determined at a wave length of 660 mμ by a Folin method.
The protease inhibition ratio of various proteolytic activity of the TPI is expressed as the […] relative activity with respect to 100 of the activity of an extract prepared by adding water instead of the TPI solution. That is, [formula]

[2] = tested on: proteolytic enzyme of yellowfin sole meat with jellied condition; assay: Proteolytic enzyme activity of treated fish meat, yellowfin sole; type: biochemical, yellowfin sole (Limanda aspera)
Text: (§1) The quantity of the TPI added generally also depends upon the concentration of a proteolytic enzyme of fish meat contaminated with sporozoa. For example, North Pacific hake on which sporozoa are parasitic has a proteolytic enzyme activity of from a low level up to 30,000 units.
One hundred North Pacific frozen yellowfin sole containing a large number of spots of jellied condition in their muscles were thawed. These flatfish were gutted and the abdominal pores were washed.
During the dipping, the flatfish were irradiated with supersonic waves having a frequency of 18 KC for 10 minutes by using the same magnetostriction type supersonic wave oscillator as described in Example 2. Thereafter, the flatfish were drained. Then, these fish were dried at 15° C. in a low temperature dryer dehydromaster to obtain dried flatfish with salt.
350 Kg of the flatfish was headed and gutted and the meat was collected by means of a fish meat separator. […] As described in Example 9, this fish meat was twice soaked in cold water in a quantity two times that of the meat and drained to obtain 130 Kg of hydroextracted meat.
A solution of 0.6 g of antipain in 1 l of water was added to 60 Kg of each sample of the hydroextracted meat and the mixture was uniformly mixed. 10 Kg of the mixture was packed in a polyethylene bag to obtain a raw kneaded meat. A control was prepared in the same manner except that 1 l of water alone was added.
These raw kneaded meats were stored in a refrigerator at a temperature of from 4° to 5° C. for 24 hours. Thereafter, these meats were removed from the refrigerator. Then, 1.5 Kg of sodium chloride, 2.5 Kg of sugar, 4.0 Kg of starch, 1.2 Kg of mirin (sweet sake) and 0.5 Kg of sodium glutamate were added to 50 Kg of each of the raw kneaded meats, and the mixture was ground and formed into "itatuki-kamaboko" according to a conventional method.

[3] = tested on: proteolytic enzyme of Pacific hake meat with jellied condition; assay: Proteolytic enzyme activity of treated fish meat, Pacific hake; type: biochemical; conditions: Example 11; soaked 10 minutes in 200 l cold water with 100 g sodium hydrogensulfite; control 3,200 units
Text: as §1
The resulting fish was subjected to a fillet making machine to obtain skinless fillets. […] Each fillet sample was washed with water containing 0.05% of sodium sulfite. […]
Then, fish meat was collected from the thawed hake by means of a fish meat separator. […] The fish meat was soaked in cold water in a quantity two times that of the meat and drained, and it was again soaked in cold water in the same quantity and drained to obtain 105 Kg of hydroextracted meat. […]
The frozen testing and control kneaded meats thus obtained were thawed and subjected to a model estimation method of elasticity. In testing the elasticity, the kneaded meats are usually formed into a model product of a Japanese style fish meat paste and the model product is evaluated for quality.
200 Kg of the frozen fillet of the same Pacific hake as that described in Example 9 was thawed. […] Then, the fish meat was soaked in cold water in a quantity two times that of the meat and drained. […] The first portion was soaked in cold water in a quantity two times that of the meat and drained to obtain 50 Kg of hydroextracted meat as a control. […]

[4] = concentration 0.01%, 40° C., 5 minutes, pH 3
[5] = concentration 0.002%, 40° C., 5 minutes, pH 3
[6] = aqueous fish meat extract, pH 3, 5 min
[7] = concentration 0.02%, 40° C., 5 minutes, pH 3

Molecule: N.O.O.O.O.O.O.O.O.O.O.O.O.O=S(=O)([O-])O.O=S(=O)([O-])[O-].[Al+3] [ammonium alum]
- inhibition ratio (%) [1, 4]: 89.8%

Molecule: N.N.O=S(=O)(O)OOS(=O)(=O)O [ammonium persulfate]
- inhibition ratio (%) ([1]; concentration 0.015%, 40° C., 5 minutes, pH 3): 91.7%

Molecule: CC(C)[C@H](NC(=O)[C@H](CCCNC(=N)N)NC(=O)N[C@@H](Cc1ccccc1)C(=O)O)C(=O)N[C@H](C=O)CCCNC(=N)N [antipain] ({Phe-CO}-Arg-Val-Arg-aldehyde)
- inhibition ratio (%) [1, 5]: 72.9%
- proteolytic enzyme activity of raw kneaded meat ([2]; Example 12, 0.6 g antipain in 1 l water per 60 Kg hydroextracted meat, control 1,140 units): 980 units
- proteolytic enzyme activity of ground meat ([2]; Example 12, after 24 hours at 4° to 5° C. and grinding with salt, sugar, starch, control 1,080 units): 23 units

Molecule: O=C(OOC(=O)c1ccccc1)c1ccccc1 [benzoyl peroxide]
- inhibition ratio (%) [1, 4]: 82.3%

Molecule: [Ca+2].[O-]Cl.[O-]Cl [calcium hypochlorite]
- inhibition ratio (%) [1, 4]: 98.1%

Molecule: [O]=[Ca] [calcium oxide]
- inhibition ratio (%) [1, 4]: 100.0%

Molecule: [O][Cl+][O-] [chlorine dioxide]
- inhibition ratio (%) [1, 4]: 100.0%

Molecule: OO [hydrogen peroxide]
- inhibition ratio (%) ([1]; concentration 0.001%, 40° C., 5 minutes, pH 3): 86.8%
- inhibition ratio (%) [1, 4]: 100.0%

Molecule: OCl [hypochlorous acid]
- inhibition ratio (%) [1, 4]: 88.5%

Molecule: CC(=O)N[C@@H](CC(C)C)C(=O)N[C@@H](CC(C)C)C(=O)N[C@H](C=O)CCCNC(=N)N [leupeptin, reference compound]
- inhibition ratio (%) [1, 5]: 99.0%

Molecule: [K+].[K+].[O]=[Cr](=[O])([O-])[O][Cr](=[O])(=[O])[O-] [potassium dichromate, reference compound]
- inhibition of the activity of the protease produced by the sporozoa (in words) [1]: high inhibition
- inhibition ratio (%) [1, 6]: 96.1%

Molecule: O=[N+]([O-])[O-].[K+] [potassium nitrate, reference compound]
- inhibition ratio (%) [1, 4]: -1.4%

Molecule: O=S([O-])O.[Na+] [sodium hydrogen sulfite]
- inhibition ratio (%) [1, 7]: 96.1%
- proteolytic enzyme activity of hydroextracted meat [3]: 840 units

Molecule: OCl [sodium hypochlorite]
- inhibition ratio (%) [1, 4]: 87.8%

Molecule: O=S([O-])S(=O)(=O)[O-].[Na+].[Na+] [sodium metabisulfite]
- inhibition ratio (%) ([1]; concentration 0.05%, 40° C., 5 minutes, pH 3): 96.2%

Molecule: O=NO [sodium nitrite]
- inhibition ratio (%) [1, 6]: 90.2%

Molecule: O=S([O-])[O-].[Na+].[Na+] [sodium sulfite]
- inhibition ratio (%) [1, 7]: 93.4%

Molecule: chymostatin [reference compound]
- inhibition ratio (%) [1, 5]: 97.0%
- proteolytic enzyme activity of dried flatfish with salt whose muscle was softened and partially depressed ([2]; Example 7, dipped 2 hours in 10% sodium chloride containing 0.01% chymostatin, supersonic waves 18 KC 10 minutes, muscles had 5,000 units before): 120 units

Molecule: sodium chlorite
- inhibition ratio (%) [1, 4]: 100.0%
